Read-outs that look alike come from different tables or passages of the source.
Assays:
Alternaria alternata [1] = test: In vitro poisoned food technique against fungus (Ex. 20); type: cell-based
Alternaria alternata [2] = test: Alternaria leaf spot/blight on inoculated tomato plants (Ex. 28); type: in vivo; details: in vivo
tomato seedlings = test: Response of tomato plants, greenhouse growth (Ex. 30); type: in vivo; details: tomato seedlings, dose 1 ml/gm/lit
chili seedlings = test: Response of chili plants, greenhouse growth (Ex. 31); type: in vivo; details: chili seedlings, dose 1 ml/gm/lit
Aphid [3] = details: in vivo
Helicoverpa armigera = details: in vivo
Spodoptera litura [4] = details: in vivo
Spodoptera litura [5] = details: in vivo; remark: listed apart in the source
Thrips [6] = details: in vivo
[7] = cited from earlier work
Spodoptera litura [8] = test: whole plant or invertebrate; details: 72 h
Thrips [9] = test: whole plant or invertebrate; details: in Gossypium hirsutum, 48 h
Aphid [10] = test: whole plant or invertebrate; details: 48 h
[11] = Table 13, descriptive, no test described
[12] = read-out: % Corrected Mortality at 48 Hrs.
[13] = read-out: % Mortality at 48 Hrs.

COc1cc(CNC(=O)CCCC/C=C/C(C)C)ccc1O [Capsaicin]
inhibition of growth at 1 mL or g/L (Alternaria alternata [1]; […]): 42.6%
Mean colony Diameter (mm) (Alternaria alternata [1]; poisoned food technique, PDA medium, dose 1 ml/gm/lit., after seven days): 50.50 mm
% Disease reduction over Control (Alternaria alternata [2]): 51.24%
Plant Height 5th Day (tomato seedlings; 5th day after application): 7.11 cm
Stem Girth 5th Day (tomato seedlings; 5th day after application): 1.92 mm
Plant Height 10th Day (tomato seedlings; 10th day after application): 7.86 cm
Stem Girth 10th Day (tomato seedlings; 10th day after application): 2.01 mm
Plant Height % Increase over pre on 10th Day (tomato seedlings; 10th day): 29.28%
Stem Girth % Increase over pre on 10th Day (tomato seedlings; 10th day): 58.60%
CCI 5th Day (tomato seedlings; 5th day after application): 14.66
CCI % Increase over pre on 10th Day (tomato seedlings; 10th day): 21.99%
Root Length (cm) 10th Day (tomato seedlings; 10th day): 3.95 cm
CCI 10th Day (tomato seedlings; 10th day after application): 15.42
Root Length % Increase over control (tomato seedlings; 10th day, vs water control): 18.74%
CCI 5th Day (chili seedlings; 5th day after application): 12.21
Plant Height (cm) 5th Day (chili seedlings; 5th day after application): 6.30 cm
CCI % Increase over pre on 10th Day (chili seedlings; 10th day): 46.96%
Plant Height % Increase over pre on 10th Day (chili seedlings; 10th day): 43.26%
Root Lenght (cm) 10th Day (chili seedlings; 10th day): 2.99 cm
Stem Girth % Increase over pre on 10th Day (chili seedlings; 10th day): 43.31%
CCI 10th Day (chili seedlings; 10th day after application): 13.52
Plant Height (cm) 10th Day (chili seedlings; 10th day after application): 6.59 cm
Root Lenght % Increase over control (chili seedlings; 10th day, vs water control): 9.09%
% Corrected Mortality at 48 Hrs. (Aphid [3]): 57.14%
Total No. of dead insect at 72 Hrs. (Helicoverpa armigera): 4.50
Total No. of dead insect at 72 Hrs. (Spodoptera litura [4]): 4.25
% Corrected Mortality at 72 Hrs. (Spodoptera litura [5]): 44.74%
% Mortality at 72 Hrs. (Spodoptera litura [5]): 47.50%
% Corrected Mortality at 48 Hrs. (Thrips [6]): 55.56%
% Mortality at 48 Hrs. (Thrips [6]): 60.00%
Acaricidal Activity - Mode of action [7, 11]: Acts as a mite feeding
Antifungal Activity - Mode of action [7, 11]: Inhibits the hyphae
Antioxidant Activity - Mode of action [7, 11]: Showed antioxidant
Bactericidal Activity - Mode of action [7, 11]: Inhibition of bacterial
Insecticidal Activities - Mode of action [7, 11]: Fumigant and larvicidal
Virucidal Activity - Mode of action [7, 11]: Inhibited viral replication
Phytotonic Effect ([7]; Table 13, effect on plants, descriptive): Increase
mortality at 1 mL or g/L (Spodoptera litura [8]; read-out: % Corrected Mortality at 72 Hrs.): 39.5%
mortality at 1 mL or g/L (Spodoptera litura [8]; read-out: % Mortality at 72 Hrs.): 42.5%
mortality at 1 mL or g/L (Thrips [9]; [12]): 57.1%
mortality at 1 mL or g/L (Thrips [9]; [13]): 62.5%
mortality at 1 mL or g/L (Aphid [10]; [12]): 55.9%
mortality at 1 mL or g/L (Aphid [10]; [13]): 62.5%
